Reference: ChEMBL document CHEMBL1201862, “PubChem BioAssay data set” (2004)
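Method: 48-hour compound exposure of cells in 96-well plates, five concentrations, linear interpolation of endpoints. At the GI50, growth is halved.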 Calls of active or inactive are those of the source. No stated cut-off is given here; in the data, active = GI50 up to about 1.1 µM and inactive = higher.

Assays:
Assay in all cases: inhibition of tumour cell growth, NCI panel, 48 h
SW-620 = system: SW-620
HCT-15 = system: HCT-15
K562 = system: K562
A549 = system: A549
786-0 = system: 786-0
HOP-92 = system: HOP-92
HCC 2998 = system: HCC 2998
SF-268 = system: SF-268
DU-145 = system: DU-145
NCI-H460 = system: NCI-H460
SNB-19 = system: SNB-19
MCF7 = system: MCF7
PC-3 = system: PC-3
SNB-75 = system: SNB-75
SR = system: SR
HL-60 = system: HL-60
COLO 205 = system: COLO 205
CAKI-1 = system: CAKI-1
NCI/ADR-RES = system: NCI/ADR-RES
KM-20L2 = system: KM-20L2

| SMILES | GI50 (SW-620) | GI50 (HCT-15) | GI50 (K562) | GI50 (A549) | GI50 (786-0) | GI50 (HOP-92) | GI50 (HCC 2998) | GI50 (SF-268) | GI50 (DU-145) | GI50 (NCI-H460) | GI50 (SNB-19) | GI50 (MCF7) | GI50 (PC-3) | GI50 (SNB-75) | GI50 (SR) | GI50 (HL-60) | GI50 (COLO 205) | GI50 (CAKI-1) | GI50 (NCI/ADR-RES) | GI50 (KM-20L2) |
| --- | --- | --- | --- | --- | --- | --- | --- | --- | --- | --- | --- | --- | --- | --- | --- | --- | --- | --- | --- | --- |
| CCCCCCCCCCCCCCCCCCNc1ccn(C2OC(COP(=O)(O)OCC(COP(=O)(O)OCC3OC(n4cc(C)c(=O)[nH]c4=O)CC3N=[N+]=[N-])OCCCCCCCCCCCCCCCCCC)C(O)C2O)c(=O)n1 (stereo not drawn) | > 100 µM (inactive) | 34 µM | > 100 µM (inactive) | 51.6 µM (inactive) | 54.1 µM (inactive) | 20.3 µM (inactive) | 99.1 µM (inactive) | 50.6 µM (inactive) | > 100 µM (inactive) | 54.3 µM (inactive) | 19.4 µM (inactive) | 34.4 µM (inactive) | 29.4 µM (inactive) | 49 µM (inactive) | > 100 µM (inactive) | > 100 µM (inactive) | 54.5 µM (inactive) | > 100 µM (inactive) | > 100 µM (inactive) | – |
| CCc1cccc(C(C)C)c1N1C(=O)C(=O)C(c2nc3ccccc3s2)C(=O)C1=O | 32.7 µM (inactive) | 29.4 µM | 16.3 µM (inactive) | > 50 µM (inactive) | > 50 µM (inactive) | > 50 µM (inactive) | > 50 µM (inactive) | > 50 µM (inactive) | – | > 50 µM (inactive) | > 50 µM (inactive) | – | – | > 50 µM (inactive) | – | 12.3 µM (inactive) | 16.8 µM (inactive) | > 50 µM (inactive) | – | 48.4 µM (inactive) |
| CC(=O)OC1CCC2(C)C(=CCC3C4CCC5(OC6CC(C)CN(C(C)=O)C6C5C)C(C)=C4C(=O)C32)C1 (stereo not drawn) | 66.8 µM (inactive) | 15.7 µM | 16.3 µM (inactive) | 14.3 µM (inactive) | 28.1 µM (inactive) | 15 µM (inactive) | 13.7 µM (inactive) | 16 µM (inactive) | 30.8 µM (inactive) | 15.7 µM (inactive) | 13.7 µM (inactive) | 10.5 µM (inactive) | 14.3 µM (inactive) | 19 µM (inactive) | 16 µM (inactive) | 81.3 µM (inactive) | 14 µM (inactive) | 19.6 µM (inactive) | 18 µM (inactive) | – |
| O=C(O)C1CC=CCC1C(=O)Nc1cccc(O)c1 (stereo not drawn) | > 100 µM (inactive) | > 100 µM | > 100 µM (inactive) | > 100 µM (inactive) | > 100 µM (inactive) | > 100 µM (inactive) | > 100 µM (inactive) | > 100 µM (inactive) | > 100 µM (inactive) | > 100 µM (inactive) | > 100 µM (inactive) | > 100 µM (inactive) | > 100 µM (inactive) | > 100 µM (inactive) | > 100 µM (inactive) | > 100 µM (inactive) | > 100 µM (inactive) | > 100 µM (inactive) | > 100 µM (inactive) | – |
| CC1Cc2c(cc(N)nc2Br)NC1=O (stereo not drawn) | > 100 µM (inactive) | > 100 µM | 63.4 µM (inactive) | 63.7 µM (inactive) | > 100 µM (inactive) | 45.9 µM (inactive) | > 100 µM (inactive) | > 100 µM (inactive) | > 100 µM (inactive) | > 100 µM (inactive) | > 100 µM (inactive) | > 100 µM (inactive) | > 100 µM (inactive) | 74.8 µM (inactive) | 84.1 µM (inactive) | > 10 µM (inactive) | > 100 µM (inactive) | > 100 µM (inactive) | > 100 µM (inactive) | – |
| O=C(N/C(=C\c1ccc(/C=C(\NC(=O)c2ccccc2)c2nc3cc([N+](=O)[O-])ccc3[nH]2)cc1)c1nc2cc([N+](=O)[O-])ccc2[nH]1)c1ccccc1 | 55.7 µM (inactive) | 49.8 µM | 18.3 µM (inactive) | 31 µM (inactive) | 42.4 µM (inactive) | 35.2 µM (inactive) | 27.1 µM (inactive) | 22.1 µM (inactive) | – | – | > 100 µM (inactive) | – | – | 68.5 µM (inactive) | – | – | 29.8 µM (inactive) | > 100 µM (inactive) | – | 37.8 µM (inactive) |
| COc1ccc(/C(C#N)=C2/O/C(=N/N)C(c3ccc(OC)c(OC)c3)C2=O)cc1OC (stereo not drawn) | > 100 µM (inactive) | > 100 µM | > 100 µM (inactive) | > 100 µM (inactive) | > 100 µM (inactive) | > 100 µM (inactive) | – | > 100 µM (inactive) | – | – | – | – | – | > 100 µM (inactive) | > 100 µM (inactive) | > 100 µM (inactive) | – | > 100 µM (inactive) | – | > 100 µM (inactive) |
| Cc1ccc(NCCO)cc1 | > 100 µM (inactive) | > 100 µM | 55 µM (inactive) | > 100 µM (inactive) | > 100 µM (inactive) | 97.1 µM (inactive) | – | > 100 µM (inactive) | – | > 100 µM (inactive) | > 100 µM (inactive) | – | – | > 100 µM (inactive) | > 100 µM (inactive) | > 100 µM (inactive) | > 100 µM (inactive) | > 100 µM (inactive) | – | > 100 µM (inactive) |
| COCn1c(=O)n(C)c(=O)c2c1nc1c(c(=O)n(C)c(=O)n1COC)[n+]2[O-] | 11.1 µM (inactive) | 4.22 µM | 4.75 µM (inactive) | 23.4 µM (inactive) | 18.4 µM (inactive) | 3.61 µM (inactive) | 5.33 µM (inactive) | 6.65 µM (inactive) | 17.1 µM (inactive) | 3.15 µM (inactive) | 13.7 µM (inactive) | 20.4 µM (inactive) | 5.07 µM (inactive) | 2.75 µM (inactive) | 3.77 µM (inactive) | 12.7 µM (inactive) | 12.5 µM (inactive) | 20.3 µM (inactive) | 59 µM (inactive) | – |
| CCOC(=O)Nc1cc2c(c(N)n1)N=C(c1ccc3ccccc3c1)CN2 | 0.0485 µM (active) | 0.0189 µM | < 0.01 µM (active) | 0.299 µM (active) | 0.0809 µM (active) | 0.275 µM (active) | 0.215 µM (active) | 1.92 µM (inactive) | 0.101 µM (active) | 0.0918 µM (active) | 0.0614 µM (active) | 0.192 µM (active) | 0.0407 µM (active) | 0.111 µM (active) | 0.0329 µM (active) | 0.0167 µM (active) | 0.499 µM (active) | 1.25 µM (inactive) | 0.0335 µM (active) | – |
| c1ccc2c(c1)nnn1c3cnccc3nc21 | 32.4 µM (inactive) | 22.6 µM | 21.6 µM (inactive) | 30.9 µM (inactive) | 32.4 µM (inactive) | 24.6 µM (inactive) | 46.5 µM (inactive) | 37.8 µM (inactive) | – | 16 µM (inactive) | 47.6 µM (inactive) | – | – | 25.4 µM (inactive) | – | 8.87 µM (inactive) | 20.7 µM (inactive) | 28.6 µM (inactive) | – | 53.1 µM (inactive) |
| COc1cccc(NC(=O)/C(CC(=O)CC(c2ccccc2)c2c(O)c3ccccc3oc2=O)=N\NC(C)(C)C)c1OC (stereo not drawn) | > 100 µM (inactive) | 28.4 µM | 44.9 µM (inactive) | 87.7 µM (inactive) | > 100 µM (inactive) | 17.6 µM (inactive) | 40.9 µM (inactive) | > 100 µM (inactive) | – | > 100 µM (inactive) | > 100 µM (inactive) | – | – | 27.7 µM (inactive) | – | 22.5 µM (inactive) | > 100 µM (inactive) | 36.1 µM (inactive) | – | 51.4 µM (inactive) |
| CC1OC(OC2C(OC(=O)[C@]34CCC(C)(C)C[C@H]3C3=CC[C@@H]5[C@@]6(C)CC[C@H](OC7OC(CO)C(O)C(O)C7OC7OC(CO)C(O)C(O)C7O)C(C)(C)[C@@H]6CC[C@@]5(C)[C@]3(C)CC4)OCC(O)C2O)C(O)C(O)C1OC1OCC(O)C(O)C1O (stereo partly drawn) | 16.1 µM (inactive) | 15.7 µM | 10.8 µM (inactive) | 6.37 µM (inactive) | 8.3 µM (inactive) | 6.85 µM (inactive) | 1.98 µM (inactive) | 6.85 µM (inactive) | 11.9 µM (inactive) | 24.4 µM (inactive) | 14.5 µM (inactive) | 12.6 µM (inactive) | 12.4 µM (inactive) | 16.7 µM (inactive) | 7.93 µM (inactive) | 6.11 µM (inactive) | 1.71 µM (inactive) | 5.01 µM (inactive) | 8.97 µM (inactive) | – |
| CC1=NN(c2nc(N)nc(C(C)Sc3cc(Cl)c(C)cc3S(N)(=O)=O)n2)C(C)(C)C1 (stereo not drawn) | > 10 µM (inactive) | > 10 µM | > 10 µM (inactive) | > 10 µM (inactive) | > 10 µM (inactive) | > 10 µM (inactive) | > 10 µM (inactive) | > 10 µM (inactive) | > 10 µM (inactive) | > 10 µM (inactive) | > 10 µM (inactive) | > 10 µM (inactive) | > 10 µM (inactive) | > 10 µM (inactive) | > 10 µM (inactive) | > 10 µM (inactive) | > 10 µM (inactive) | > 10 µM (inactive) | > 10 µM (inactive) | – |
| O=C(Cc1nc2ccc([N+](=O)[O-])cc2nc1O)C(=O)Nc1ccccc1[N+](=O)[O-] | > 100 µM (inactive) | 44.1 µM | > 100 µM (inactive) | > 100 µM (inactive) | > 100 µM (inactive) | > 100 µM (inactive) | > 100 µM (inactive) | > 100 µM (inactive) | – | > 100 µM (inactive) | > 100 µM (inactive) | – | – | > 100 µM (inactive) | – | > 100 µM (inactive) | > 100 µM (inactive) | > 100 µM (inactive) | – | 87.3 µM (inactive) |
| COC(=O)c1cc(Cl)ccc1NC(=O)c1ccc([N+](=O)[O-])cc1 | 29.9 µM (inactive) | 32.2 µM | 26.9 µM (inactive) | 19.6 µM (inactive) | 14.6 µM (inactive) | – | 29.2 µM (inactive) | – | – | 42.3 µM (inactive) | – | – | – | 6.73 µM (inactive) | – | 27.4 µM (inactive) | – | 15.3 µM (inactive) | – | 21.3 µM (inactive) |
